The source of these data is patent US7442373B2 (priority 2003, dated 2008).

In test [1] the test system is Bacillus anthracis spores. Further details: species or system Hartley guinea pigs. The following applies: guinea pig, in vivo.
Another test has as its system Bacillus anthracis Ames. Further details: species or system Swiss-Webster mice. The following applies: mouse, in vivo.

Regarding AVP-21D9, the “protection, antibody alone” value in test [1] (ip) is “provided protection and delayed the mean time of death”. Also, the animals protected with Bacillus anthracis Ames was 40%.

With `O=C(O)c1cn(C2CC2)c2cc(N3CCNCC3)c(F)cc2c1=O` [ciprofloxacin], in test [1], the ED50 dose was 3 mg/day and the “protection at low dose 1.12 mg/day” value is “non-protective”.
